From patent publication US20110097274A1, “Carbon-11 and fluorine-18 labeled radioligands for positron emission tomography (PET) imaging for the brain serotonin transporters” (priority 2002, published 2011)
Several values for one entry are separate records, joined by “and”; a condition that tells them apart may be missing. Identical values can stand only once. Like-named read-outs stand apart in the source and are kept apart here.

How the values were obtained:
[1] = Plasma free fraction (f1) and filter retention by ultrafiltration; assay type: in vitro ADME, baboon; conditions: mean ± SD of four experiments
Method: Plasma and ultrafiltrate activities were counted, and f1 was calculated as the ratio of ultrafiltrate activity to total plasma activity. Triplicate aliquots of the radioligand in pH 7.4 Tris buffer were also processed to determine the filter retention of free tracer.

[2] = Baboon PET imaging: brain uptake, kinetic analysis and SERT parameters; assay type: in vivo; conditions: male, baboon, intravenous, baboons
Outline: (§1)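 Two isoflurane-anaesthetised adult male baboons, each radioligand tested twice (test-retest); i.v. bolus, 91 min 3D emission scan with arterial sampling, MRI-defined regions. Brain uptake as % ID g^−1, with peak time and washout; VT from one-tissue compartment model (K1/k2) using arterial plasma input.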

SERT = assay: as above; assay type: in vivo; conditions: for Kp: male, baboon, brain, intravenous
Outline: as §1

[3] = BP = VT ROI − VT CER, baboons, mean ± SD of four experiments
[4] = Mean ± SD of four experiments in two baboons
[5] = baboons, mean ± SD of four experiments
[6] = last scan 90 minutes, baboons, mean ± SD of four experiments
[7] = one-tissue compartment model, baboons, mean ± SD of four experiments

SMILES: CN(C)Cc1ccccc1Sc1ccc(C#N)cc1N [[^11C]DASB]
- Filter retention ([1]; activity remaining on filter, radioligand dissolved in saline): 19.2 ± 4.7%
- fraction unbound at 20 minutes ([1]; male, baboon plasma, ultrafiltration): 0.135 ± 0.017
- fraction unbound ([2]; brain nonspecific distribution volume (cerebellum), calculated from f1 and cerebellar VT, read-out: f2 (free fraction in the nonspecific distribution volume)): 0.0077 ± 0.0008
- Kp ([2]; brain regions (average of all regions), read-out: VT, average of all regions and all animals): 29.2 ± 11.5
- Kp ([2]; cerebellum, one-tissue compartment model, mean ± SD of four experiments, read-out: VT Cerebellum (VT CER, nonspecific distribution volume)): 17.3 ± 0.5
- Binding potential Cingulate Cortex (SERT; [3]): 3.8 ± 0.8 mL/g
- Binding potential Hippocampus (SERT; [3]): 10.0 ± 1.3 mL/g
- Binding potential Midbrain (SERT; [3]): 29.1 ± 4.0 mL/g
- Binding potential Occipital Cortex (SERT; [3]): 2.0 ± 1.1 mL/g
- Binding potential Striatum (SERT; [3]): 14.4 ± 1.5 mL/g
- Binding potential Temporal Cortex (SERT; [3]): 5.1 ± 1.9 mL/g
- Binding potential Thalamus (SERT; [3]): 30.2 ± 4.9 mL/g
- Equilibrium specific to non-specific partition coefficient (V3″) Cingulate Cortex (SERT; Baboon A, single experiment): 0.26 and 0.25
- Equilibrium specific to non-specific partition coefficient (V3″) Hippocampus (SERT; Baboon A, single experiment): 0.48 and 0.65
- Equilibrium specific to non-specific partition coefficient (V3″) Midbrain (SERT; Baboon A, single experiment): 1.46 and 1.66
- Equilibrium specific to non-specific partition coefficient (V3″) Occipital Cortex (SERT; Baboon A, single experiment): 0.15 and 0.18
- Equilibrium specific to non-specific partition coefficient (V3″) Striatum (SERT; Baboon A, single experiment): 0.72 and 0.89
- Equilibrium specific to non-specific partition coefficient (V3″) Temporal Cortex (SERT; Baboon A, single experiment): 0.34 and 0.42
- Equilibrium specific to non-specific partition coefficient (V3″) Thalamus (SERT; Baboon A, single experiment): 1.42 and 1.68
- Equilibrium specific to non-specific partition coefficient (V3″) Cingulate Cortex (SERT; Baboon B, single experiment): 0.21 and 0.16
- Equilibrium specific to non-specific partition coefficient (V3″) Hippocampus (SERT; Baboon B, single experiment): 0.62 and 0.54
- Equilibrium specific to non-specific partition coefficient (V3″) Midbrain (SERT; Baboon B, single experiment): 1.64 and 1.96
- Equilibrium specific to non-specific partition coefficient (V3″) Striatum (SERT; Baboon B, single experiment): 0.83 and 0.87
- Equilibrium specific to non-specific partition coefficient (V3″) Temporal Cortex (SERT; Baboon B, single experiment): 0.21
- Equilibrium specific to non-specific partition coefficient (V3″) Thalamus (SERT; Baboon B, single experiment): 1.79 and 2.07
- Equilibrium specific to non-specific partition coefficient (V3″) Cingulate Cortex (SERT; [4]): 0.22 ± 0.04
- Equilibrium specific to non-specific partition coefficient (V3″) Hippocampus (SERT; [4]): 0.58 ± 0.08
- Equilibrium specific to non-specific partition coefficient (V3″) Midbrain (SERT; [4]): 1.68 ± 0.21
- Equilibrium specific to non-specific partition coefficient (V3″) Occipital Cortex (SERT; [4]): 0.11±0.06
- Equilibrium specific to non-specific partition coefficient (V3″) Striatum (SERT; [4]): 0.83 ± 0.08
- Equilibrium specific to non-specific partition coefficient (V3″) Temporal Cortex (SERT; [4]): 0.29 ± 0.10
- Equilibrium specific to non-specific partition coefficient (V3″) Thalamus (SERT; [4]): 1.74 ± 0.27
- K1, average of all regions and all animals (SERT; baboons): 1.21 ± 0.22 mL/g/min
- k2, average of all regions and all animals (SERT; baboons): 0.047 ± 0.018 min⁻¹
- V3″ expressed in percentage of [^11C]McN 5652 V3″ (SERT; baboons, combining all regions): 142±29%
- Mean regional peak uptake time (SERT; baboons, mean of all regions): 19 ± 9 min
- Mean regional wash-out (% decrease between peak time and last scan) (SERT; baboons, mean of all regions): 52±19%
- Regional uptake peak time Cerebellum (SERT; [5]): 12 ± 5 min
- Regional uptake peak time Cingulate Cortex (SERT; [5]): 14 ± 3 min
- Regional uptake peak time Hippocampus (SERT; [5]): 22 ± 10 min
- Regional uptake peak time Midbrain (SERT; [5]): 27 ± 13 min
- Regional uptake peak time Occipital Cortex (SERT; [5]): 16 ± 4 min
- Regional uptake peak time Striatum (SERT; [5]): 22 ± 10 min
- Regional uptake peak time Temporal Cortex (SERT; [5]): 19 ± 5 min
- Regional uptake peak time Thalamus (SERT; [5]): 24 ± 10 min
- Total brain uptake at 45 min (SERT; baboons, region encompassing the entire brain): 0.013±0.002 % ID g^−1
- Regional activity wash-out: % decrease from peak to last scan, Cerebellum (SERT; [6]): 68 ± 14%
- Regional activity wash-out: % decrease from peak to last scan, Cingulate Cortex (SERT; [6]): 64 ± 10%
- Regional activity wash-out: % decrease from peak to last scan, Hippocampus (SERT; [6]): 46 ± 19%
- Regional activity wash-out: % decrease from peak to last scan, Midbrain (SERT; [6]): 32 ± 19%
- Regional activity wash-out: % decrease from peak to last scan, Occipital Cortex (SERT; [6]): 65 ± 11%
- Regional activity wash-out: % decrease from peak to last scan, Striatum (SERT; [6]): 49 ± 18%
- Regional activity wash-out: % decrease from peak to last scan, Temporal Cortex (SERT; [6]): 58 ± 13%
- Regional activity wash-out: % decrease from peak to last scan, Thalamus (SERT; [6]): 36 ± 16%
- Kp (SERT; cingulate cortex, one-tissue compartment model, baboons, mean ± SD of four experiments, read-out: VT Cingulate Cortex): 21.1 ± 0.9
- Kp (SERT; hippocampus, one-tissue compartment model, baboons, mean ± SD of four experiments, read-out: VT Hippocampus): 27.3 ± 1.4
- Kp (SERT; midbrain, one-tissue compartment model, baboons, mean ± SD of four experiments, read-out: VT Midbrain): 46.4 ± 4.3
- Kp (SERT; occipital cortex, one-tissue compartment model, baboons, mean ± SD of four experiments, read-out: VT Occipital Cortex): 19.3 ± 1.5
- Kp (SERT; striatum, one-tissue compartment model, baboons, mean ± SD of four experiments, read-out: VT Striatum): 31.7 ± 1.7
- Kp (SERT; temporal cortex, one-tissue compartment model, baboons, mean ± SD of four experiments, read-out: VT Temporal Cortex): 22.5 ± 2.1
- Kp (SERT; thalamus, one-tissue compartment model, baboons, mean ± SD of four experiments, read-out: VT Thalamus): 47.5 ± 5
- K1 Cerebellum (SERT; [7]): 1.36 ± 0.24 mL/g/min
- K1 Cingulate Cortex (SERT; [7]): 1.26 ± 0.09 mL/g/min
- K1 Hippocampus (SERT; [7]): 0.98 ± 0.20 mL/g/min
- K1 Midbrain (SERT; [7]): 1.23 ± 0.20 mL/g/min
- K1 Occipital Cortex (SERT; [7]): 1.15 ± 0.24 mL/g/min
- K1 Striatum (SERT; [7]): 1.27 ± 0.21 mL/g/min
- K1 Temporal Cortex (SERT; [7]): 1.05 ± 0.09 mL/g/min
- K1 Thalamus (SERT; [7]): 1.35 ± 0.29 mL/g/min
- K2 Cerebellum (SERT; [7]): 0.078 ± 0.013 min⁻¹
- K2 Cingulate Cortex (SERT; [7]): 0.060 ± 0.004 min⁻¹
- K2 Hippocampus (SERT; [7]): 0.036 ± 0.006 min⁻¹
- K2 Midbrain (SERT; [7]): 0.027 ± 0.005 min⁻¹
- K2 Occipital Cortex (SERT; [7]): 0.059 ± 0.011 min⁻¹
- K2 Striatum (SERT; [7]): 0.040 ± 0.007 min⁻¹
- K2 Temporal Cortex (SERT; [7]): 0.047 ± 0.004 min⁻¹
- K2 Thalamus (SERT; [7]): 0.028 ± 0.006 min⁻¹
- VT Cerebellum (VT CER, nonspecific distribution volume) (SERT; [7]): 17.3 ± 0.5 mL/g
